Tested on: radiation dermatitis in rat skin
Assay: Rat radiation dermatitis assay, topical application before irradiation
Type: in vivo
Description: To determine if PrC-210 could function as a topical radioprotector that could prevent radiation dermatitis when applied prior to a cancer patient's daily radiotherapy, a rat assay that realistically mimics human radiation dermatitis was created. This assay quantifies the severity of radiation dermatitis in rat skin 13 days after a single radiation dose of 17.33 Gy.
In this study, PrC-210 was applied to rat skin in an ethanol/water delivery vehicle four times in the 2 h before irradiation, and control rats received only topical vehicle before irradiation (FIG. 2). Additional drug/irradiation groups of three rats each received either the alkyl-thiol moiety or the alkyldiamine moiety from PrC-210 in the same delivery vehicle. Following the 17.33 Gy irradiation of a […] patch of dorsal skin on the rats' backs, rats were scored 13 days later.
Molecules were applied to skin in an alcohol/water delivery vehicle prior to receiving a 17.33 Gy radiation dose to the 1.5 cm×3.0 cm skin site. Radiation dermatitis severity (i.e., % of the site covered by scab material) was scored 13 days following irradiation.

CNCC(CS)CNC [PrC-210, 3-(methyl-amino)-2-((methylamino)methyl)propane-l-thiol]
topical radioprotective potency and efficacy compared with thiolated polyamines and other PrC-200 series aminothiols (radiodermatitis test groups): most potent and most effective topical aminothiol to date
prevention of radiation dermatitis (% of the site covered by scab material) (topical in ethanol/water vehicle four times in the 2 h before single 17.33 Gy dose, scored 13 days later): completely prevent radiation dermatitis
